Results on two compounds are retold here after ChEMBL document CHEMBL1152350, “Identification of compounds exhibiting inhibitory activity toward the Pseudomonas tolaasii toxin tolaasin I using in silico docking calculations, NMR binding assays, and in vitro hemolytic activity assays” (Bioorg Med Chem Lett, 2009).

Active and inactive are the calls of the source. The rule behind the calls is not given here.

Assay [1] has as its system Pseudomonas tolaasii. The assay is described as follows: Binding affinity to Pseudomonas tolaasii tolaasin 1 at 1 mM by NMR spectroscopy.
The subject of assay [2] is Pseudomonas tolaasii. Nature of the assay: Suppression of Pseudomonas tolaasii tolaasin 1-induced hemolysis in rat erythrocytes. The assay is classed as cell-based.
In assay [3] the test system is Pseudomonas tolaasii. The assay is described as follows: Suppression of Pseudomonas tolaasii tolaasin 1-induced hemolysis in rat erythrocytes at 10 to 100 uM. It is filed as cell-based.
The test system of assay [4] is Pseudomonas tolaasii. The assay is described as follows: Suppression of Pseudomonas tolaasii tolaasin 1-induced hemolysis in rat erythrocytes at >1 mM. It is filed as cell-based.

Regarding `Cc1[nH]c(=N)sc1C`, the result in assay [1] and in assay [2] was inactive.

For the compound `CCCCCCCC/C=C\CCCCCCCC(=O)OC[C@@H](O)[C@@H](O)[C@H](O)[C@@H](O)CO`, the outcome in assay [1] was Active. In addition, the Activity in assay [3] came to 40%. Besides, the result in assay [4] was inactive.
